Where “and” joins values, the source holds several entries; their conditions need not be identical. Equal values may be shown once. Toxic doses and inconclusive results are not listed.
System: BDF1 mice, P388 leukemia ip, median survival T/C
Assay: NCI In Vivo Anticancer Drug Screen. Data for tumor model P388 Leukemia (intraperitoneal) in B6D2F1 (BDF1) mice
Details: endpoint: median survival time, higher = longer survival
Method: The antitumor activity of compounds was measured in mice bearing transplantable tumors. Survival or tumor size were measured and the results are expressed as the measurement made in the treated group (T) divided by the measurement made in the vehicle treated control group (C). The tumor model used in this assay is P388 Leukemia (intraperitoneal) in B6D2F1 (BDF1) mice

[1] = dose: 100.0 mg/kg/injection, schedule: Q04DX003 (ip), vehicle: saline with Tween-80
[2] = dose: 200.0 mg/kg/injection, schedule: Q04DX003 (ip), vehicle: saline with Tween-80
[3] = dose: 400.0 mg/kg/injection, schedule: Q04DX003 (ip), vehicle: saline with Tween-80
[4] = dose: 100.0 mg/kg/injection, schedule: Q04DX003 (ip), vehicle: Klucel (hydroxypropylcellulose) (HPC)
[5] = dose: 200.0 mg/kg/injection, schedule: Q04DX003 (ip), vehicle: Klucel (hydroxypropylcellulose) (HPC)
[6] = dose: 400.0 mg/kg/injection, schedule: Q04DX003 (ip), vehicle: Klucel (hydroxypropylcellulose) (HPC)
[7] = dose: 50.0 mg/kg/injection, schedule: Q01DX009 (ip), vehicle: saline with Tween-80
[8] = dose: 100.0 mg/kg/injection, schedule: Q01DX009 (ip), vehicle: saline with Tween-80
[9] = dose: 200.0 mg/kg/injection, schedule: Q01DX001 (ip), vehicle: saline with Tween-80
[10] = dose: 25.0 mg/kg/injection, schedule: Q01DX009 (ip), vehicle: saline
[11] = dose: 25.0 mg/kg/injection, schedule: Q04DX003 (ip), vehicle: saline

SMILES: Cc1nc([N+](=O)[O-])cn1CC/C(N)=N/O
- T/C [1]: 108 % of control
- T/C [2]: 105 % of control
- T/C [3]: 115 % of control

SMILES: COC(=O)c1ccc(C(=O)OC)c(=O)[nH]1
- T/C (dose: 100.0 mg/kg/injection, schedule: Q01DX009 (ip), vehicle: Klucel (hydroxypropylcellulose) (HPC)): 100 % of control
- T/C [4]: 104 % of control
- T/C (dose: 200.0 mg/kg/injection, schedule: Q01DX009 (ip), vehicle: Klucel (hydroxypropylcellulose) (HPC)): 95 % of control
- T/C [5]: 104 % of control
- T/C (dose: 400.0 mg/kg/injection, schedule: Q01DX009 (ip), vehicle: Klucel (hydroxypropylcellulose) (HPC)): 91 % of control
- T/C [6]: 104 % of control

SMILES: CC(=O)NC(CCCCNC(=O)OCc1ccccc1)C(=O)O (configuration not stated)
- T/C (dose: 50.0 mg/kg/injection, schedule: Q01DX005 (ip), vehicle: saline with Tween-80): 90 % of control
- T/C (dose: 100.0 mg/kg/injection, schedule: Q01DX005 (ip), vehicle: saline with Tween-80): 93 % of control
- T/C (dose: 200.0 mg/kg/injection, schedule: Q01DX005 (ip), vehicle: saline with Tween-80): 89 % of control

SMILES: CC(=O)C(Cl)C(C)=O.CC(=O)C(Cl)C(C)=O.CO.CO.[Ni]
- T/C (dose: 12.0 mg/kg/injection, schedule: Q01DX001 (ip), vehicle: Klucel (hydroxypropylcellulose) (HPC)): 108 % of control
- T/C (dose: 25.0 mg/kg/injection, schedule: Q01DX001 (ip), vehicle: Klucel (hydroxypropylcellulose) (HPC)): 95 % of control
- T/C (dose: 50.0 mg/kg/injection, schedule: Q01DX001 (ip), vehicle: Klucel (hydroxypropylcellulose) (HPC)): 112 % of control
- T/C (dose: 100.0 mg/kg/injection, schedule: Q01DX001 (ip), vehicle: Klucel (hydroxypropylcellulose) (HPC)): 104 % of control
- T/C (dose: 400.0 mg/kg/injection, schedule: Q01DX001 (ip), vehicle: Klucel (hydroxypropylcellulose) (HPC)): 118 % of control

SMILES: Cc1ccc(N2C(=O)C=CC2=O)cc1
- T/C (dose: 5.0 mg/kg/injection, schedule: Q01DX009 (ip), vehicle: saline sonified): 100 % of control
- T/C (dose: 10.0 mg/kg/injection, schedule: Q01DX009 (ip), vehicle: saline sonified): 119 % of control
- T/C (dose: 20.0 mg/kg/injection, schedule: Q01DX009 (ip), vehicle: saline sonified): 100 % of control

SMILES: C[N+]1(C)N=C([O-])N(c2ccccc2C(F)(F)F)C1=O
- T/C [7]: 87 % of control
- T/C [8]: 92 % of control

SMILES: COC(=O)C1C(c2ccccc2)=NC(c2ccccc2)C1C(=O)OC (configuration not stated)
- T/C (dose: 100.0 mg/kg/injection, schedule: Q01DX001 (ip), vehicle: saline with Tween-80): 101 % of control
- T/C [9]: 96 % of control
- T/C (dose: 400.0 mg/kg/injection, schedule: Q01DX001 (ip), vehicle: saline with Tween-80): 109 % of control

SMILES: CSc1ccc(NC(=O)NN(c2ccccc2)C2CCS(=O)(=O)C2)cc1 (configuration not stated)
- T/C [7]: 100 % of control
- T/C [8]: 102 % of control
- T/C (dose: 200.0 mg/kg/injection, schedule: Q01DX009 (ip), vehicle: saline with Tween-80): 101 % of control

SMILES: COC(=O)c1sccc1C=O
- T/C [4]: 96 % of control
- T/C [5]: 96 % of control
- T/C [6]: 92 % of control

SMILES: CCCCN(CCCC)P(=O)(N1CC1)N1CC1
- T/C (dose: 16.5 mg/kg/injection, schedule: Q01DX009 (ip), vehicle: saline): 250 % of control
- T/C [10]: 118 % of control
- T/C (dose: 37.5 mg/kg/injection, schedule: Q01DX009 (ip), vehicle: saline): 113 % of control

SMILES: O=C(/C=C\c1ccccc1)/C=C/c1ccccc1
- T/C (dose: 100.0 mg/kg/injection, schedule: Q04DX003 (sc), vehicle: olive oil, sesame oil, peanut oil): 100 % of control
- T/C (dose: 200.0 mg/kg/injection, schedule: Q04DX003 (sc), vehicle: olive oil, sesame oil, peanut oil): 100 % of control
- T/C (dose: 400.0 mg/kg/injection, schedule: Q04DX003 (sc), vehicle: olive oil, sesame oil, peanut oil): 100 % of control

SMILES: CC(C)CCC[C@@H](C)[C@H]1CC[C@H]2[C@@H]3CC=C4C[C@@H](Cl)CC[C@]4(C)[C@H]3CC[C@]12C
- T/C (dose: 50.0 mg/kg/injection, schedule: Q04DX003 (sc), vehicle: Klucel (hydroxypropylcellulose) (HPC)): 95 % of control
- T/C (dose: 100.0 mg/kg/injection, schedule: Q04DX003 (sc), vehicle: Klucel (hydroxypropylcellulose) (HPC)): 104 % of control
- T/C (dose: 200.0 mg/kg/injection, schedule: Q04DX003 (sc), vehicle: Klucel (hydroxypropylcellulose) (HPC)): 95 % of control

SMILES: CN=C(N)c1ccc(N=C(N)c2ccc(C(N)=Nc3ccc(C(N)=NC)cc3)cc2)cc1
- T/C (dose: 13.2 mg/kg/injection, schedule: Q01DX009 (ip), vehicle: saline): 150 % of control and 172 % of control
- T/C (dose: 20.0 mg/kg/injection, schedule: Q01DX009 (ip), vehicle: saline): 240 % of control and 218 % of control
- T/C (dose: 30.0 mg/kg/injection, schedule: Q01DX009 (ip), vehicle: saline): 268 % of control and 218 % of control

SMILES: Cc1[nH]c(=O)[nH]c(=O)c1N(CCF)CCCl
- T/C (dose: 5.0 mg/kg/injection, schedule: Q01DX009 (ip), vehicle: Klucel (hydroxypropylcellulose) (HPC)): 150 % of control
- T/C (dose: 10.0 mg/kg/injection, schedule: Q01DX009 (ip), vehicle: Klucel (hydroxypropylcellulose) (HPC)): 172 % of control
- T/C (dose: 10.0 mg/kg/injection, schedule: Q01DX009 (ip), vehicle: saline): 162 % of control
- T/C (dose: 16.5 mg/kg/injection, schedule: Q04DX003 (ip), vehicle: saline with Tween-80): 168 % of control
- T/C (dose: 25.0 mg/kg/injection, schedule: Q04DX003 (ip), vehicle: saline with Tween-80): 204 % of control
- T/C (dose: 37.5 mg/kg/injection, schedule: Q04DX003 (ip), vehicle: saline with Tween-80): 200 % of control

SMILES: c1ccc(P(=NC2CCCC2)(c2ccccc2)c2ccccc2)cc1
- T/C [1]: 110 % of control
- T/C [2]: 100 % of control
- T/C [3]: 110 % of control

SMILES: Oc1cccc2cccnc12.[Cu+].[O-]c1cccc2cccnc12
- T/C (dose: 1.87 mg/kg/injection, schedule: Q01DX009 (ip), vehicle: saline): 104 % of control
- T/C (dose: 2.75 mg/kg/injection, schedule: Q04DX003 (ip), vehicle: saline): 90 % of control
- T/C (dose: 3.75 mg/kg/injection, schedule: Q01DX009 (ip), vehicle: saline): 100 % of control
- T/C (dose: 5.5 mg/kg/injection, schedule: Q04DX003 (ip), vehicle: saline): 100 % of control
- T/C (dose: 11.0 mg/kg/injection, schedule: Q04DX003 (ip), vehicle: saline): 113 % of control
- T/C (dose: 16.0 mg/kg/injection, schedule: Q04DX003 (ip), vehicle: saline): 100 % of control
- T/C [11]: 100 % of control

SMILES: CSc1ccccc1C=O
- T/C [4]: 95 % of control
- T/C [5]: 100 % of control
- T/C [6]: 112 % of control

SMILES: CCOc1c([N+](=O)[O-])cc([N+](=O)[O-])c2ccccc12
- T/C (dose: 25.0 mg/kg/injection, schedule: Q01DX009 (ip), vehicle: saline with Tween-80): 96 % of control
- T/C [7]: 96 % of control
- T/C [8]: 93 % of control

SMILES: NCCc1cnc2ccccc2n1
- T/C (dose: 18.0 mg/kg/injection, schedule: Q01DX009 (ip), vehicle: saline): 96 % of control
- T/C [10]: 100 % of control
- T/C [11]: 100 % of control
- T/C (dose: 37.0 mg/kg/injection, schedule: Q01DX009 (ip), vehicle: saline): 92 % of control
- T/C (dose: 50.0 mg/kg/injection, schedule: Q01DX009 (ip), vehicle: saline): 120 % of control
- T/C (dose: 50.0 mg/kg/injection, schedule: Q04DX003 (ip), vehicle: saline): 100 % of control
- T/C (dose: 100.0 mg/kg/injection, schedule: Q04DX003 (ip), vehicle: saline): 100 % of control

SMILES: CSc1ncnc2c1ncn2C1OC(CO)C(O)C1O (configuration not stated)
- T/C (dose: 4.0 mg/kg/injection, schedule: Q01DX010 (ip), vehicle: saline): 113 % of control
- T/C (dose: 8.0 mg/kg/injection, schedule: Q01DX010 (ip), vehicle: saline): 122 % of control
- T/C (dose: 32.0 mg/kg/injection, schedule: Q01DX010 (ip), vehicle: saline): 118 % of control

SMILES: CN(C)c1ccc(/C=C/c2ccc3ccccc3[n+]2C)cc1
- T/C (dose: 12.5 mg/kg/injection, schedule: Q01DX009 (ip), vehicle: saline): 88 % of control

SMILES: O=Cc1c2ccc(Cl)cc2nc2cc(Cl)ccc12
- T/C [9]: 91 % of control

From PubChem BioAssay AID328 (DTP/NCI, 2004)
